Measured values reported in paper PMC5658359, “A potent small-molecule inhibitor of the DCN1-UBC12 interaction that selectively blocks cullin 3 neddylation” (Nature Communications, 2017).
≈ marks a conversion by molar mass, not a printed value. Where “and” joins values, the source holds several entries; their conditions need not be identical. Equal values may be shown once. Read-outs that look alike come from different tables or passages of the source. Where a SMILES comes first, the peptide text is derived from it. [ ]: non-standard residue; d: D form. Ala(6-iPr-benzothiazol-2-yl) = CC(C)c1ccc2nc(C[C@H](N)C(=O)O)sc2c1; Ala(benzothiazol-2-yl) = N[C@@H](Cc1nc2ccccc2s1)C(=O)O; Phe(3-CF3) = N[C@@H](Cc1cccc(C(F)(F)F)c1)C(=O)O; Phe(3,5-F2) = N[C@@H](Cc1cc(F)cc(F)c1)C(=O)O; Phe(3-CN) = N#Cc1cccc(C[C@H](N)C(=O)O)c1; 2Nal = N[C@@H](Cc1ccc2ccccc2c1)C(=O)O; hPhe = N[C@@H](CCc1ccccc1)C(=O)O

Experiments:
[1] = molecular target: T1, DCN3 (Homo sapiens, UniProt Q8IWE4); test: Label-free BLI assay, DCN3; assay type: binding; conditions: concentrations up to 10 µM
T1 construct: DCN2 (residues 62–259), DCN3 (residues 86–304), DCN4 (residues 102–292) and DCN5 (residues 47–237); His6-TEV (N, cleaved yes); made in house; host or cells: Rosetta2 cells (E. coli)
T1 sequence (Q8IWE4 86-304): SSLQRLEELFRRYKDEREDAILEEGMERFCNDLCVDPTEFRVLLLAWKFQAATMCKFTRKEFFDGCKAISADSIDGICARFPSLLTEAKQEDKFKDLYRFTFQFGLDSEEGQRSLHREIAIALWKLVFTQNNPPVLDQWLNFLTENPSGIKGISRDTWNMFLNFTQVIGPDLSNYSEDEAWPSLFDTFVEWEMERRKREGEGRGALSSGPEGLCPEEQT

[2] = molecular target: T2, DCN4 (Homo sapiens, UniProt Q92564); test: Label-free BLI assay, DCN4; assay type: binding; conditions: concentrations up to 10 µM
T2 construct: DCN2 (residues 62–259), DCN3 (residues 86–304), DCN4 (residues 102–292) and DCN5 (residues 47–237); His6-TEV (N, cleaved yes); made in house; host or cells: Rosetta2 cells (E. coli)
T2 sequence (Q92564 102-292): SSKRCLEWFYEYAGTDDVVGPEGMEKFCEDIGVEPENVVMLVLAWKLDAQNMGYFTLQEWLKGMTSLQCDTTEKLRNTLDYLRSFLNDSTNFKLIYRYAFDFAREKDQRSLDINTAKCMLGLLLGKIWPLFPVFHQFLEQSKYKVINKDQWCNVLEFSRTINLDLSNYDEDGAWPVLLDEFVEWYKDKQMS

[3] = molecular target: T3, DCN5 (Homo sapiens, UniProt Q9BTE7); test: Label-free BLI assay, DCN5; assay type: binding; conditions: concentrations up to 10 µM
T3 construct: DCN2 (residues 62–259), DCN3 (residues 86–304), DCN4 (residues 102–292) and DCN5 (residues 47–237); His6-TEV (N, cleaved yes); made in house; host or cells: Rosetta2 cells (E. coli)
T3 sequence (Q9BTE7 47-237): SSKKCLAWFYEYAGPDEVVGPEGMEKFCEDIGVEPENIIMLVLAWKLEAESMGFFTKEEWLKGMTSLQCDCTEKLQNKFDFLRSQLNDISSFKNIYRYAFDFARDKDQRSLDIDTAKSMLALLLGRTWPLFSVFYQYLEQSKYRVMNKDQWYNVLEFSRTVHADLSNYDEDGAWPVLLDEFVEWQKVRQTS

[4] = test system: NRF2 mRNA; test: qRT-PCR of NRF2 mRNA in THLE2 cells; assay type: cell-based; conditions: THLE2, 10 µM
Source text: Total RNA in treated cells was isolated with the RNeasy Mini Kit (Qiagen, Germantown, MD). RNA was reverse transcribed into complementary DNA (cDNA) using high capacity RNA-to-cDNA kit (Applied Biosystems, Carlsbad, California). […] GAPDH was used as an internal reference. […] Error bars correspond to SD from three independent experiments.

[5] = molecular target: DCN1 (Homo sapiens, UniProt Q96GG9); test: Competitive fluorescence polarization (FP) binding assay with probe 46, DCN1; parameters: Human DCN1 (residues 58–259) were cloned into a pDEST17 plasmid containing an N-terminal His6 tag; made in house; host or cells: Rosetta2 cells (E. coli); conditions: for Ki: competitive FP, probe 46 5 nM, DCN1 50 nM; for times weaker (less potent) than 30 in binding to DCN1: comparator 30; for times less potent than 33 in binding to DCN1: comparator 33; for times less potent than 1 in binding to DCN1: comparator 1
Protocol: The FP competitive binding experiments were performed to determine the binding affinities of all synthesized DCN1 inhibitors. […] Serial dilutions of DCN1 or DCN2 protein were mixed with the probe (46) to a final volume of 200 μl in the assay buffer (100 mM phosphate buffer, pH = 6.5, with 0.02% Tween-20 and 2% DMSO). The final probe concentration was 5 nM in both DCN1 and DCN2 assays. Plates were incubated at room temperature for 30 min with gentle shaking for equilibrium.
The IC50 and Ki values of compounds were determined in competitive binding experiments. Mixtures of compounds in DMSO (4 μl) and of pre-incubated protein/probe complex solution (196 μl) in the assay buffer were added into assay plates that were incubated at room temperature for 30 min with gentle shaking. Final concentrations of DCN1 protein and fluorescent probe (46) were 50 and 5 nM, respectively. […] FP values were measured as described above. IC50 values were determined by nonlinear regression fitting of the competition curves using the dose response inhibition equation (four parameters, variable slopes) included in the Prism/GraphPad software. K i values were calculated using the methods described earlier.

[6] = thermodynamic from solid
Protocol: (§1) The equilibrium aqueous solubility of an individual compound at different pH values was determined with a small-scale shake-flask method in Eppendorf tubes. Compounds were added as powder in excess to Britton-Robinson buffer at pH 2.0 or phosphate buffer at pH 7.4 until heterogeneous suspensions were obtained. Suspensions containing excessive compound powder were sonicated in a water bath for 30 min followed by incubation at room temperature with shaking for 24 h to achieve thermodynamic equilibrium. […] Supernatants obtained were filtered using Millipore MultiScreen filter plates equipped with 0.45 µm membranes. Compound concentrations in the saturated solutions were measured by UV spectroscopy at the maximum absorption wavelengths of each compound that were pre-determined by a spectrum scan.

[7] = Equilibrium aqueous solubility, small-scale shake-flask method; conditions: for solubility / solubility at 24 h: thermodynamic from solid
Protocol: as §1

[8] = Britton-Robinson buffer, pH 2.02, aqueous buffer
[9] = phosphate buffer, pH 7.4, aqueous buffer

DCN1, sequence (Q96GG9 58-259): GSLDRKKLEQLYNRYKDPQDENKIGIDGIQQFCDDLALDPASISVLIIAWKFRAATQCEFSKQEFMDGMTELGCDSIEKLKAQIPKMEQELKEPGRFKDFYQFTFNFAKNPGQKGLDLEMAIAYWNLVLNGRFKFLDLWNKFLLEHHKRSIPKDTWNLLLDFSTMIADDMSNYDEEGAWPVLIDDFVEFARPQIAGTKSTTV

CCC(=O)N[C@H](Cc1nc2ccc(C(C)C)cc2s1)C(=O)N[C@@H](CNC(=O)CCN1CCOCC1)C1CCCCC1 [DI-591DD]
binding to DCN3 (in words) [1]: no appreciable binding | binding to DCN4 (in words) [2]: no appreciable binding | binding to DCN5 (in words) [3]: no appreciable binding | mRNA level of NRF2 (in words) [4]: no effect

CC[C@H](C)[C@H](NC(=O)[C@H](CCSC)NC(C)=O)C(=O)N[C@@H](CCCCN)C(=O)N[C@@H](CC(C)C)C(N)=O [compound 9] (Ac-MIKL-NH2)
Ki [5]: 50 µM

CC[C@H](C)[C@H](NC(=O)[C@H](CCSC)NC(C)=O)C(=O)N[C@@H](CCCCN)C(N)=O [compound 10] (Ac-Met-Ile-Lys-NH2)
binding to DCN1 (in words) ([5]; at concentrations up to 1,000 µM): no appreciable binding | Ki [5]: > 1000 µM

CC[C@H](C)[C@H](NC(=O)[C@H](CCc1ccccc1)NC(C)=O)C(=O)N[C@@H](CCCCN)C(=O)N[C@@H](CC(C)C)C(N)=O [compound 12] (Ac-[hPhe]IKL-NH2)
factor by which binding affinity to DCN1 is decreased ([5]; homophenylalanine in place of Met1, compared with 9/11): 6

CC[C@H](C)[C@H](NC(=O)[C@H](Cc1cccc(C#N)c1)NC(C)=O)C(=O)N[C@@H](CCCCN)C(=O)N[C@@H](CC(C)C)C(N)=O [compound 16] (Ac-[Phe(3-CN)]IKL-NH2)
Ki [5]: > 1000 µM

CC[C@H](C)[C@H](NC(=O)[C@H](Cc1cccc(C(F)(F)F)c1)NC(C)=O)C(=O)N[C@@H](CCCCN)C(=O)N[C@@H](CC(C)C)C(N)=O [compound 17] (Ac-[Phe(3-CF3)]IKL-NH2)
Ki [5]: > 1000 µM

CC[C@H](C)[C@H](NC(=O)[C@H](Cc1cc(F)cc(F)c1)NC(C)=O)C(=O)N[C@@H](CCCCN)C(=O)N[C@@H](CC(C)C)C(N)=O [compound 20] (Ac-[Phe(3,5-F2)]IKL-NH2)
Ki [5]: 82 ± 9.1 µM

CC[C@H](C)[C@H](NC(=O)[C@H](Cc1c[nH]c2ccccc12)NC(C)=O)C(=O)N[C@@H](CCCCN)C(=O)N[C@@H](CC(C)C)C(N)=O [compound 21] (Ac-WIKL-NH2)
Ki [5]: 82 µM

CC[C@H](C)[C@H](NC(=O)[C@H](Cc1ccc2ccccc2c1)NC(C)=O)C(=O)N[C@@H](CCCCN)C(=O)N[C@@H](CC(C)C)C(N)=O [compound 23] (Ac-[2Nal]IKL-NH2)
times more potent than 11 in binding to DCN1 ([5]; comparator 11): 11 times

CC[C@H](C)[C@H](NC(=O)[C@H](Cc1nc2ccccc2s1)NC(C)=O)C(=O)N[C@@H](CCCCN)C(=O)N[C@@H](CC(C)C)C(N)=O [compound 24] (Ac-[Ala(benzothiazol-2-yl)]IKL-NH2)
solubility ([6]; pH 2.02, aqueous buffer): 1480 µM (≈ 912 µg/mL) | solubility ([6]; pH 7.4, aqueous buffer): 251 µM (≈ 155 µg/mL)

CC[C@H](C)[C@H](NC(=O)[C@H](Cc1nc2cc(Cl)ccc2s1)NC(C)=O)C(=O)N[C@@H](CCCCN)C(=O)N[C@@H](CC(C)C)C(N)=O [compound 25]
times less potent than 24 in binding to DCN1 ([5]; comparator 24): 17 times

CC[C@H](C)[C@H](NC(=O)[C@H](Cc1nc2ccc(Cl)cc2s1)NC(C)=O)C(=O)N[C@@H](CCCCN)C(=O)N[C@@H](CC(C)C)C(N)=O [compound 26]
times more potent than 24 in binding to DCN1 ([5]; comparator 24): 4 times

CC[C@H](C)[C@H](NC(=O)[C@H](Cc1nc2ccc(C(C)C)cc2s1)NC(C)=O)C(=O)N[C@@H](CCCCN)C(=O)N[C@@H](CC(C)C)C(N)=O [compound 27] (Ac-[Ala(6-iPr-benzothiazol-2-yl)]IKL-NH2)
aqueous solubility (in words) [7]: poor | solubility ([7]; pH 2.02, aqueous buffer): 227 µM (≈ 150 µg/mL) | solubility ([7]; pH 7.4, aqueous buffer): 31 µM (≈ 20.5 µg/mL) | times more potent than 9 in binding to DCN1 ([5]; comparator tetrapeptide 9): > 10,000 times | Ki [5]: 0.0047 ± 0.0014 µM

CC[C@H](C)[C@H](NC(=O)[C@H](Cc1nc2ccc(C(C)C)cc2s1)NC(C)=O)C(=O)N[C@@H](CCCCN)C(N)=O [compound 28]
solubility ([7]; pH 2.02, aqueous buffer): > 20000 µM | solubility ([7]; pH 7.4, aqueous buffer): 7470 µM (≈ 4090 µg/mL) | times less potent than 27 in binding to DCN1 ([5]; comparator 27): 37 times | Ki [5]: 0.174 ± 0.023 µM

CC[C@H](C)[C@H](NC(=O)[C@H](Cc1nc2ccc(C(C)C)cc2s1)NC(C)=O)C(N)=O [compound 29]
solubility at 24 h [7, 8]: 1050 µM (≈ 440 µg/mL) | solubility at 24 h [7, 9]: 1280 µM (≈ 535 µg/mL) | Ki [5]: 0.292 µM

CC[C@H](C)[C@@H](CN)NC(=O)[C@H](Cc1nc2ccc(C(C)C)cc2s1)NC(C)=O [compound 30]
solubility at 24 h ([7]; Britton-Robinson buffer, pH 2, aqueous buffer): > 20000 µM | solubility at 24 h [7, 8]: > 20000 µM | solubility at 24 h [7, 9]: > 20000 µM | Ki [5]: 0.066 µM and 0.0664 µM

CC[C@H](C)[C@@H](CN)NC(=O)[C@H](Cc1nc2ccc(C(C)C)cc2s1)NC=O [compound 31]
times weaker (less potent) than 30 in binding to DCN1 [5]: 34 times | Ki [5]: 2.24 ± 0.369 µM

CC[C@H](C)[C@@H](CN)NC(=O)[C@@H](N)Cc1nc2ccc(C(C)C)cc2s1 [compound 32]
times weaker (less potent) than 30 in binding to DCN1 [5]: > 1000 times | Ki [5]: 67 ± 8.3 µM

CCC(=O)N[C@@H](Cc1nc2ccc(C(C)C)cc2s1)C(=O)N[C@H](CN)[C@@H](C)CC [compound 33]
Ki [5]: 0.019 µM

CC[C@H](C)[C@@H](CN)NC(=O)[C@H](Cc1nc2ccc(C(C)C)cc2s1)NC(=O)C(C)C [compound 34]
Ki [5]: 0.061 µM

CCCC(=O)N[C@@H](Cc1nc2ccc(C(C)C)cc2s1)C(=O)N[C@H](CN)[C@@H](C)CC [compound 35]
Ki [5]: 0.27 ± 0.034 µM

CC[C@H](C)[C@@H](CN)NC(=O)[C@H](Cc1nc2ccc(C(C)C)cc2s1)NC(=O)NC [compound 36]
Ki [5]: 0.149 ± 0.028 µM

CCC(=O)N[C@@H](Cc1nc2ccc(C(C)C)cc2s1)C(=O)NCCN [compound 37]
times less potent than 33 in binding to DCN1 [5]: > 1000 times | Ki [5]: 32 ± 4.2 µM

CCC(=O)N[C@@H](Cc1nc2ccc(C(C)C)cc2s1)C(=O)N[C@@H](C)CN [compound 38]
times less potent than 33 in binding to DCN1 [5]: > 400 times | Ki [5]: 7.6 ± 0.38 µM

CCC(=O)N[C@@H](Cc1nc2ccc(C(C)C)cc2s1)C(=O)N[C@H](CN)Cc1ccccc1 [compound 39]
Ki [5]: 0.079 µM

CCC(=O)N[C@@H](Cc1nc2ccc(C(C)C)cc2s1)C(=O)N[C@H](CN)C1CCCCC1 [compound 40]
aqueous solubility (in words) [7]: good | solubility at 24 h [7, 8]: 4750 µM (≈ 2110 µg/mL) | solubility at 24 h [7, 9]: 1910 µM (≈ 847 µg/mL) | Ki [5]: 0.013 µM

CCC(=O)N[C@@H](Cc1nc2ccc(C(C)C)cc2s1)C(=O)N[C@H](CN(C)C)C1CCCCC1 [compound 41]
Ki [5]: 0.017 µM

CCC(=O)N[C@@H](Cc1nc2ccc(C(C)C)cc2s1)C(=O)N[C@H](CN1CCOCC1)C1CCCCC1 [compound 42]
Ki [5]: 0.044 µM

CCC(=O)N[C@@H](Cc1nc2ccc(C(C)C)cc2s1)C(=O)N[C@H](CNC(=O)CN1CCOCC1)C1CCCCC1 [compound 43]
Ki [5]: 0.019 µM and 0.0185 µM

Ac-MIKLFSLK-NH2 [compound 5]
times less potent than 1 in binding to DCN1 [5]: 2–3 times

Ac-MIKLFSLKQ-NH2 [compound 4]
times less potent than 1 in binding to DCN1 [5]: 2–3 times

Ac-MIKLFSLKQQ-NH2 [compound 3]
times less potent than 1 in binding to DCN1 [5]: 2–3 times
